Measurements as given in patent publication US7091033B2, “Array of toxicologically relevant canine genes and uses thereof” (Phase-1 Molecular Toxicology, Inc., priority 2000, dated 2006).
Like-named read-outs stand apart in the source and are kept apart here.

System: canine kidney gene expression
Experiment: Canine array gene expression profile of kidney from dog dosed with erythromycin estolate
Format: in vivo
Details: Canis lupus familiaris, 240 h, 10 days
Experimental: For liver or kidney, about 0.15-0.20 g of tissue was weighed and placed in a 15 ml conical tube. All tissue were kept on dry ice when other samples were being weighed.
About 3.8 ml of RLT buffer was added to the tube containing the sample. The RLT buffer® from Qiagen can be prepared beforehand by adding 10 μl betamercaptoethanol to each 1.0 ml of lysis buffer needed. The tissue was homogenized using the rotor-stator homogenizer for 45 seconds. A IKA Ultra Turrax T25 homogenizer set at speed 4 with the S25N-10G dispersing element can be used. Alternatively, a Virtishear Cyclone 750W rotor/stator homogenizer (Virtis item #278077) can be used with the 7 mm microfine sawtooth shaft and generator (195 mm long with a processing range of 0.25 ml to 20 ml, item #372718). After homogenization, samples were stored on ice until all samples were homogenized. To clean the homogenizing tip between samples, the tip was first run for a few seconds in 95% ethanol and then rinsed by squirting with fresh 95% ethanol. This process was repeated with nanopure water.
The tissue lysate was centrifuged at room temperature for 10 minutes at 3700-3800 rpm in a Beckman GS-6 (or equivalent) centrifuge to remove nuclei thus reducing DNA contamination.
The supernatant of the lysate was transferred to a clean 15 ml conical tubes containing an equal volume of 70% EtOH in DEPC treated H2O, being careful not to include any of the pellet or fatty layer and mixed. About 3.8 ml of sample was added to the RNeasy spin column placed in a 15 ml centrifuge tube and centrifuged at 3000×g (3690-3710 rpm, Beckman GS-6) for 5 min. The flow-through was discarded. The remaining sample was added to the appropriate column and spun at 3000×g for 5 minutes and the flow-through was discarded.
About 4.0 ml of Buffer RW1 (Qiagen®) was added to the column and spun as before then about 2.5 ml of buffer RPE (Qiagen®) was added to column and spun at 3000×g (3690-3710 rpm, Beckman GS-6) for 2 minutes. In this example, RPE buffer was supplied as a concentrate so 4 volumes of 95% EtOH was added before use. For the midi kit, about 220 ml of 95% EtOH would be added to 55 ml of RPE. Another 2.5 ml of buffer RPE was added and spun for 5 minutes to also dry out column. The column, including the tip, should be dry for the next elution step.
For elution, the column that has the RNA bound to a clean 15 ml tube was transferred and 200 μl of RNase-free water was added to the column, allowed to sit for 1 minute, and spun for 3 minutes at 3000×g (3690-3710 rpm, Beckman GS6). This step was repeated into the same tube but with 200 μl RNase-free water.
Liver and kidney organs were isolated from a dog which was dosed with erythromycin esolate at 100 mg/kg/day for 2 or 10 days. The dog was euthanized 16 hours after the last dosage and the organs were harvested according to standard sterile procedure. RNA was isolated from the kidney and liver as detailed in Example 1. cDNA was made from the RNA and used as probes as detailed in the Examples above.

## CCC(=O)O[C@H]1[C@H](O[C@@H]2[C@@H](C)[C@H](O[C@H]3C[C@@](C)(OC)[C@@H](O)[C@H](C)O3)[C@@H](C)C(=O)O[C@H](CC)[C@@](C)(O)[C@H](O)[C@@H](C)C(=O)[C@H](C)C[C@@]2(C)O)O[C@H](C)C[C@@H]1N(C)C [erythromycin estolate]
read-out: Alkaline phosphatase fold induction
  fold induction at 100 mg/kg: 1.6
read-out: Angiopoietin-related protein 3 (ANGPTL3) fold induction
  fold induction at 100 mg/kg: 1
read-out: BRCA1 fold induction
  fold induction at 100 mg/kg: 1.2
read-out: Beta-glucuronidase fold induction
  fold induction at 100 mg/kg: 1.1
read-out: Catalase fold induction
  fold induction at 100 mg/kg: 1.2
read-out: Caveolin-1 fold induction
  fold induction at 100 mg/kg: 1
read-out: Caveolin-2 fold induction
  fold induction at 100 mg/kg: 1.6
read-out: Cubilin fold induction
  fold induction at 100 mg/kg: 1.1
read-out: Cytochrome c oxidase subunit VIIaL fold induction
  fold induction at 100 mg/kg: 1
read-out: Decorin fold induction
  fold induction at 100 mg/kg: 1.1
read-out: FGFR2 fold induction
  fold induction at 100 mg/kg: 1.1
read-out: GRP94 fold induction
  fold induction at 100 mg/kg: 1.1
read-out: Gadd45 fold induction
  fold induction at 100 mg/kg: 1
read-out: Glucose-regulated protein 94 #1 fold induction
  fold induction at 100 mg/kg: 1.4
read-out: N-cadherin fold induction
  fold induction at 100 mg/kg: 1.1
read-out: Phase-1 CCT-4 fold induction
  fold induction at 100 mg/kg: 1.1
read-out: Phase-1 CCT-8 fold induction
  fold induction at 100 mg/kg: 1.1
read-out: Phase-1 CCT-12 fold induction
  fold induction at 100 mg/kg: 1.1
read-out: Phase-1 CCT-13 fold induction
  fold induction at 100 mg/kg: 1
read-out: Phase-1 CCT-14 fold induction
  fold induction at 100 mg/kg: 1
read-out: Phase-1 CCT-16 fold induction
  fold induction at 100 mg/kg: 1
read-out: Phase-1 CCT-17 fold induction
  fold induction at 100 mg/kg: 1
read-out: Phase-1 CCT-18 fold induction
  fold induction at 100 mg/kg: 1.2
read-out: Phase-1 CCT-19 fold induction
  fold induction at 100 mg/kg: 1.2
read-out: Phase-1 CCT-27 fold induction
  fold induction at 100 mg/kg: 1.4
read-out: Phase-1 CCT-30 fold induction
  fold induction at 100 mg/kg: 1.3
read-out: Phase-1 CCT-31 fold induction
  fold induction at 100 mg/kg: 1.1
read-out: Phase-1 CCT-32 fold induction
  fold induction at 100 mg/kg: 1.1
read-out: Phase-1 CCT-33 fold induction
  fold induction at 100 mg/kg: 1.1
read-out: Phase-1 CCT-34 fold induction
  fold induction at 100 mg/kg: 1.1
read-out: Phase-1 CCT-36 fold induction
  fold induction at 100 mg/kg: 1
read-out: Phase-1 CCT-40 fold induction
  fold induction at 100 mg/kg: 1.2
read-out: Phase-1 CCT-41 fold induction
  fold induction at 100 mg/kg: 1.2
read-out: Phase-1 CCT-42 fold induction
  fold induction at 100 mg/kg: 1.1
read-out: Phase-1 CCT-43 fold induction
  fold induction at 100 mg/kg: 1.2
read-out: Phase-1 CCT-49 fold induction
  fold induction at 100 mg/kg: 1
read-out: Phase-1 CCT-50 fold induction
  fold induction at 100 mg/kg: 1.1
read-out: Phase-1 CCT-51 fold induction
  fold induction at 100 mg/kg: 1.2
read-out: Phase-1 CCT-52 fold induction
  fold induction at 100 mg/kg: 1.1
read-out: Phase-1 CCT-53 fold induction
  fold induction at 100 mg/kg: 1
read-out: Phase-1 CCT-55 fold induction
  fold induction at 100 mg/kg: 1.1
read-out: Phase-1 CCT-56 fold induction
  fold induction at 100 mg/kg: 1.1
read-out: Phase-1 CCT-58 fold induction
  fold induction at 100 mg/kg: 1.5
read-out: Phase-1 CCT-59 fold induction
  fold induction at 100 mg/kg: 1
read-out: Phase-1 CCT-60 fold induction
  fold induction at 100 mg/kg: 1.1
read-out: Phase-1 CCT-62 fold induction
  fold induction at 100 mg/kg: 1.1
read-out: Phase-1 CCT-65 fold induction
  fold induction at 100 mg/kg: 1.1
read-out: Phase-1 CCT-66 fold induction
  fold induction at 100 mg/kg: 1.1
read-out: Phase-1 CCT-73 fold induction
  fold induction at 100 mg/kg: 1.1
read-out: Phase-1 CCT-76 fold induction
  fold induction at 100 mg/kg: 1
read-out: Phase-1 CCT-82 fold induction
  fold induction at 100 mg/kg: 1
read-out: Phase-1 CCT-84 fold induction
  fold induction at 100 mg/kg: 1.1
read-out: Phase-1 CCT-87 fold induction
  fold induction at 100 mg/kg: 1.2
read-out: Phase-1 CCT-88 fold induction
  fold induction at 100 mg/kg: 1.2
read-out: Phase-1 CCT-89 fold induction
  fold induction at 100 mg/kg: 1.1
read-out: Phase-1 CCT-91 fold induction
  fold induction at 100 mg/kg: 1.1
read-out: Phase-1 CCT-93 fold induction
  fold induction at 100 mg/kg: 1
read-out: Proliferating cell nuclear antigen gene fold induction
  fold induction at 100 mg/kg: 1.1
read-out: Prostaglandin D synthase fold induction
  fold induction at 100 mg/kg: 1.2
read-out: Rab2 fold induction
  fold induction at 100 mg/kg: 1.2
read-out: Rab5 fold induction
  fold induction at 100 mg/kg: 1.1
read-out: Rab7 fold induction
  fold induction at 100 mg/kg: 1.4
read-out: Superoxide dismutase Mn fold induction
  fold induction at 100 mg/kg: 1.1
read-out: TFCOUP-related (probable steroid hormone receptor) fold induction
  fold induction at 100 mg/kg: 1.1
read-out: TPRD fold induction
  fold induction at 100 mg/kg: 1.1
read-out: UV excision repair protein RAD 23 (XP-C) fold induction
  fold induction at 100 mg/kg: 1.2
read-out: c-erb B-2 fold induction
  fold induction at 100 mg/kg: 1.4
read-out: p53 fold induction
  fold induction at 100 mg/kg: 1.4
iv, read-out: ZAP36/annexin IV fold induction
  fold induction at 100 mg/kg: 1.6
